How the values were obtained:
Male buffalo rats = test: In vivo MR contrast enhancement (signal intensity pre and post contrast), Example 3; conditions: for Liver + Muscle (ratio of liver enhancement to muscle enhancement) / Liver enhancement / Muscle enhancement (paraspinal muscle): scans 30 min after I.V. injection
Experimental: All in vivo imaging was performed on a Siemens 1.5 Tesla magnet (Iselin, N.J.). Spin echo technique was utilized for both T1- and T2-weighted imaging. T1-weighted sequences utilized parameters TR/TE: 400 msec/16 msec, 4 acquisitions, 256 x 256 matrix 16 cm field view for 2 mm thick slices. For T1 calculations, images were acquired using a fixed TE of 28 msec with TR varying from 300, 500, 1500 and 3500 msec. For T2 calculations a fixed TR of 3500 msec was used with TE values of 28, 45, 70, 90 and 150 msec. T1 and T2 calculations were preformed using the software on the Magnetom System (Iselin, N.J.) by selecting a region of interest on the CRT monitor.
Male buffalo rats, weighing approximately 450 grams, were scanned using a 7.5 cm circular surface coil. The animals were scanned in the supine position, and signal intensities of liver, paraspinal muscle, kidney, renal pelvis, bladder and vascular structures were measured pre and post contrast. Rats were imaged pre and post contrast injection of either 0.4 µ Gd-DTPA liposomes (8 rats) or free Gd-DTPA (2 rats).
Injections of the 0.4 µ liposomes prepared in Example 1 were performed by tail vein injection using a 26 gauge butterfly needle. Gd-DTPA liposomes were injected over a period of approximately two minutes; liposomes were diluted with an equal volume of normal saline immediately prior to injection.

[1] = In vitro relaxivity from phantom imaging at 1.5 Tesla, Example 4; type: physicochemical; conditions: phantoms in PBS, T1
Experimental: Phantoms were prepared by diluting the vesicle preparation with Dulbecco's phosphate buffered saline (PBS) (Gibco), so as to obtain several samples for each vesicle preparation with an effective concentration of Gd-DTPA in the range 0.2-2 mmoles. Approximately 10 ml of each dilution was placed in 20 ml plastic syringes (Becton Dickinson), which were sealed with parafilm to prevent leakage and placed in a custom-built acrylic phantom holder which positioned the syringes with their long-axes horizontal within the bore of the magnet.
Phantoms were imaged using a Siemens 1.5 Tesla Magnetom whole body scanner (Iselin, N.J.) using body coil. For T1 calculations, images were acquired using spin-echo sequences with a fixed TE of 17 msec and TR values of 100, 300, 450, 600, 900, 1200, 1800, 2500 and 3500 msec. Other parameters were 4 acquisitions, 256 x 256 matrix, 30 cm field of view and 10 mm slices.

Hepatic Metastases = test: Blind study detection of hepatic metastases on MR images pre and post contrast by 5 radiologists, Example 7; type: in vivo, rat; conditions: for Accuracy Post: includes adjustment for false positives; for #Post (number of metastases detected on Post contrast scans): one rat per dose, 5 radiologists; for Sensitivity Post: percentage of lesions detected on Post contrast scans
From the text: The cell line employed, C5, is a clonal derivative of a rat liver epithelial cell line initially derived from the livers of newborn Fisher rats and subsequently transformed in vitro by transfection with a plasmid containing the T24ras gene driven by the mouse metallothionein promotor. See, Li et al., P.N.A.S., Vol. 35, pp. 344 (1988); Reynolds et al., Oncogene, Vol. 323, pp. 323-330 (1987).
The tumors used in this study were generated by injecting 3 x 10⁵ cells into the superficial lobe of rat livers. Three separate injections of 10⁵ cells were made within an approximate area of 0.5 cm² under direct visualization. The tumors were allowed to grow for 14 to 17 days before imaging followed by sacrifice.
MR imaging was performed on a whole body 1.5 T Siemens Magnetom (Erlangen, West Germany) using a 15 cm Helmholtz receive only coil. Spin echo technique was used with TR/TE of 400 msec/17 msec, 2 mm slices with 4 acquisitions. Images were obtained pre and post contrast in both axial and coronal planes with post contrast images obtained from 5 to 60 minutes post contrast.
Rats were lightly sedated with ether and then fully sedated with I.P. Ketamine/Rompun 0.10 ml/100 g body weight. Contrast injections were performed by tail vein over two minutes with volume approximately 0.5 ml. Doses were as follows: free Gd-DTPA 0.5 and 0.2 mM/kg, 400 nm Gd-DTPA liposomes 0.5, 0.2 and 0.1 mM/Kg and 70 nm Gd-DTPA liposomes 0.5 and 0.2 mM/Kg with one rat injected with each dose.
Pre and post contrast images were separated and, in a blind study, five radiologists experienced in interpreting MR and oncologic imaging were given the MR images to interpret. The MR scans were presented to the radiologists randomly without knowledge of path findings or contrast agent used. The radiologists were instructed to count the number of metastases, plot lesion locations and measure lesion size. The number and sizes of lesions detected were then correlated with the histologic sections and the true number of metastases detected was determined for pre and post contrast scans. The Mann-Whitney test was used to test for statistical significance of results for lesion detection pre and post contrast.
Immediately after imaging, the rats were sacrificed by ether overdose and the livers removed and fixed in 10% formalin. The gross liver specimens were photographed and sectioned in the coronal plant at 2 mm intervals. The number of lesions were counted and size of lesions were measured to correlate with findings on MR images. Microscopic sections were prepared using hematoxylin and eosin stain and studied with light microscopy.

Male Wistar rats = test: In vivo MR contrast enhancement of microemulsified liposomes at 0.5 Tesla, Example 9; conditions: control, dose of 0.1 mmoles/kg; Figure 5
Experimental: All in vivo imaging was performed on a Toshiba MR-50A 0.5 Tesla whole body scanner. Scan parameters were TR = 400 msec TE = 15 msec, 5 mm slice, 1 mm interslice gap, 15 cm field of view with 4 acquisitions using a receive-only surface coil.
Male Wistar rats were scanned in the supine position, and signal intensities of liver, kidney and paraspinal muscle as well as urine, were measured pre and post contrast, with post contrast intervals comprising 15 minutes, 1 hour, 4 hours, 24 hours and 48 hours.
Injections of liposomes prepared as described above were made at concentrations of 0.1, 0.05 and 0.025 mM/kg, based on the weight of the rats, and were carried out by tail vein injection using a 26 gauge butterfly needle. The liposomes were injected over a period of approximately two minutes, and were first diluted with an equal volume of normal saline immediately prior to injection.

Substance: gadolinium diethylenetriamine pentaacetic acid [Free Gd-DTPA]
- Liver + Muscle (ratio of liver enhancement to muscle enhancement) (Male buffalo rats; Dose 0.109 mM/Kg): -19.3%
- Liver enhancement (Male buffalo rats; Dose 0.109 mM/Kg): 0.0%
- Muscle enhancement (paraspinal muscle) (Male buffalo rats; Dose 0.109 mM/Kg): 22.4%
- Liver + Muscle (ratio of liver enhancement to muscle enhancement) (Male buffalo rats; Dose 0.218 mM/Kg): 8.2%
- Liver enhancement (Male buffalo rats; Dose 0.218 mM/Kg): 11.6%
- Muscle enhancement (paraspinal muscle) (Male buffalo rats; Dose 0.218 mM/Kg): 3.1%
- enhancement on scans after injection (Male buffalo rats; two control animals, 0.1 and 0.2 millimoles/kg): enhancement of renal cortex, renal pelvis and urinary bladder, but no appreciable enhancement of liver or vascular structures
- Relaxivity [1]: 2.79 sec^-1 x mM^-1
- Accuracy Post (Hepatic Metastases; Dose 0.2 mm/kg): 0±0%
- #Post (number of metastases detected on Post contrast scans) (Hepatic Metastases; Dose 0.2 mm/kg): 0±0 isointense
- Sensitivity Post (Hepatic Metastases; Dose 0.2 mm/kg): 0±0%
- Accuracy Post (Hepatic Metastases; Dose 0.5 mm/kg): 40.0±23.5%
- #Post (number of metastases detected on Post contrast scans) (Hepatic Metastases; Dose 0.5 mm/kg): 2.80±1.64
- Sensitivity Post (Hepatic Metastases; Dose 0.5 mm/kg): 40.0±23.5%
- lesion detection by the five radiologists (Hepatic Metastases; post versus pre contrast, Mann-Whitney test): statistically significant reduction in lesion detection
- enhancement on scans (tissue to muscle ratio) (Male Wistar rats): no significant enhancement of the liver, kidney and urine
